Measurements reported in ChEMBL document CHEMBL1142999, “Discovery of potent, selective, orally active, nonpeptide inhibitors of human mast cell chymase” (J Med Chem, 2007).
Activity calls are given as the source filed them. The calls are words filed in the database; no cut-off is given here.

Tests used:
Syrian golden hamster [1] = assay: Antiinflammatory activity against carrageenan-induced paw inflammation in golden Syrian hamster at 10 mg/kg, im; type: functional, organism-based; parameters: dose 10 mg/kg; conditions: Mesocricetus auratus
Chymase (Homo sapiens) = biological target: T1, Chymase (Homo sapiens) (UniProt P23946); assay: Inhibition of human skin chymase at 10 uM
T1 sequence (whole entry): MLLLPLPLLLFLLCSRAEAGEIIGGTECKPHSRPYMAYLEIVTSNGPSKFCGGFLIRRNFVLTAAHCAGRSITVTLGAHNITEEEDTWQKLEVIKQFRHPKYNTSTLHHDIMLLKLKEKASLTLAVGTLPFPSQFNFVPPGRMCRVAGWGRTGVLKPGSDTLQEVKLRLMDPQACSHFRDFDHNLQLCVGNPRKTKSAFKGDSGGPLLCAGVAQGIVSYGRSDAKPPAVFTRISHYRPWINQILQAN

[2] = biological target: T2, Coagulation factor VII (Homo sapiens) (UniProt P08709); assay: Inhibition of human factor VIIa at 100 uM
T2 sequence (whole entry): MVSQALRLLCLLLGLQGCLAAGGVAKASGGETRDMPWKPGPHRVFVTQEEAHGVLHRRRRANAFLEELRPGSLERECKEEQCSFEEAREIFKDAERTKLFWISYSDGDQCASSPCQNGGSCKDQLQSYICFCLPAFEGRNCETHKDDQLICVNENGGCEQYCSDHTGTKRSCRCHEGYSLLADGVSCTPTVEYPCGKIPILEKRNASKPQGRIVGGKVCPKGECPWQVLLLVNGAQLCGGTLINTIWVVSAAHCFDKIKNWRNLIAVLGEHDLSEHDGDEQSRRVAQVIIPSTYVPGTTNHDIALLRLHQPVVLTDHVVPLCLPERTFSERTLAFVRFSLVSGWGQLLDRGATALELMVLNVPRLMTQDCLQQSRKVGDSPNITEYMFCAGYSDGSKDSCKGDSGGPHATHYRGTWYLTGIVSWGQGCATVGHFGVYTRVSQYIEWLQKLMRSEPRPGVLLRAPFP

[3] = biological target: T3, Neutrophil elastase (Homo sapiens) (UniProt P08246); assay: Inhibition of human leukocyte elastase at 100 uM
T3 sequence (whole entry): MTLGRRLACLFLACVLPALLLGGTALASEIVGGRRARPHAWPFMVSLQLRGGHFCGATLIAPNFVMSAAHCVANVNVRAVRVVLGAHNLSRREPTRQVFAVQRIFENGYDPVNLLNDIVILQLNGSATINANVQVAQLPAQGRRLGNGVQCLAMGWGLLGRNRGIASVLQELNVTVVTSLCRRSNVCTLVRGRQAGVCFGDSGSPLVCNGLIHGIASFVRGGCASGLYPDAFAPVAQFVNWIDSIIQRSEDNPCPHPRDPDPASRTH

Trypsin = Trypsin (Homo sapiens, UniProt P07477+P07478+P35030); assay: Inhibition of human trypsin; type: protein assay
Homo sapiens [4] = species: Homo sapiens; assay: Inhibition of human chymotrypsin at 100 uM
[5] = Half life in orally dosed rat; type: ADME, organism-based; conditions: in vivo, po
Cathepsin G = biological target: T4, Cathepsin G (Homo sapiens, UniProt P08311); assay: Inhibition of human neutrophil Cat G
T4 sequence (P08311 whole entry): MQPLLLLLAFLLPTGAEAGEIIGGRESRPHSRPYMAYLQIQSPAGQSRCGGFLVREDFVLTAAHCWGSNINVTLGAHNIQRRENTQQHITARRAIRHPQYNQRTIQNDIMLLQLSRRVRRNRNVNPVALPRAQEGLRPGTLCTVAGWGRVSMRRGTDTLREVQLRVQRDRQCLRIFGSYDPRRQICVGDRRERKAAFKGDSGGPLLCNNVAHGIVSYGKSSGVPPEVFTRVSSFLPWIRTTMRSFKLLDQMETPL

[6] = biological target: Coagulation factor X (Homo sapiens) (UniProt P00742); assay: Inhibition of human factor Xa at 100 uM
Homo sapiens [7] = species: Homo sapiens; assay: Inhibition of human beta-tryptase at 100 uM
Homo sapiens [8] = species: Homo sapiens; assay: Inhibition of human alpha-thrombin at 100 uM
[9] = Oral bioavailability in rat; type: ADME, organism-based; conditions: in vivo
[10] = biological target: T5, Cathepsin G (Homo sapiens) (UniProt P08311); assay: Inhibition of human neutrophil Cat G at 100 uM
T5 sequence (whole entry): T4 sequence (P08311 whole entry)

[11] = Cmax in rat; type: ADME, organism-based; conditions: in vivo
Syrian golden hamster [12] = assay: Antiinflammatory activity against carrageenan-induced paw inflammation in golden Syrian hamster at 30 mg/kg, po; type: functional; conditions: Mesocricetus auratus

Coagulation factor X (Homo sapiens), sequence (P00742 41-179 limits assumed): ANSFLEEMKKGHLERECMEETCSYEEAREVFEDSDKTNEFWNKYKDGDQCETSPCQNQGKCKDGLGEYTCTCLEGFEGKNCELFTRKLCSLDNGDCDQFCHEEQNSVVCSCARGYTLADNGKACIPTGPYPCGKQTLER
Coagulation factor X (Homo sapiens), sequence (P00742 235-488 limits assumed): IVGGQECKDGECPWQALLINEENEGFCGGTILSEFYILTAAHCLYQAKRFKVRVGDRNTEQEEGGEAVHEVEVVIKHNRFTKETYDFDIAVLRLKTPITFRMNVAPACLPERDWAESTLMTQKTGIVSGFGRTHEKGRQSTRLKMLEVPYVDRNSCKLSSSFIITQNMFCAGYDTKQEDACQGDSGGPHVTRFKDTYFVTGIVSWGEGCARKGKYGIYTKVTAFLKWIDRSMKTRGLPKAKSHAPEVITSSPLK

C[C@@H]1C[C@H]2[C@@H]3CCC4=CC(=O)C=C[C@]4(C)[C@@]3(F)[C@@H](O)C[C@]2(C)[C@@]1(O)C(=O)CO
Activity (Syrian golden hamster [1]): Active

O=C(Nc1ccc2ccccc2c1)C(n1nnc2ccccc21)P(=O)(O)O (configuration not stated)
inhibition (Chymase (Homo sapiens)): < 50%

O=C(Nc1ccc2ccccc2c1)C(c1csc2ccc(Cl)cc12)P(=O)(O)O (configuration not stated)
inhibition [2]: < 50%
inhibition [3]: < 50%
IC50 (Trypsin): 12 µM
inhibition (Homo sapiens [4]): < 50%
half-life [5]: 1.8 h
Ki (Cathepsin G): 9.5 µM
inhibition [6]: < 50%
inhibition (Homo sapiens [7]): < 50%
inhibition (Homo sapiens [8]): < 50%
bioavailability [9]: 3%

O=C(Nc1ccc2ccccc2c1)C(c1cccc2ccccc12)P(=O)(O)O (configuration not stated)
inhibition [10]: 0%

CP(=O)(O)C(C(=O)N/C=C/c1cc(F)cc(Cl)c1)c1csc2ccc(Cl)cc12 (configuration not stated)
Cmax [11]: 6 µM
inhibition in vivo at 30 mg/kg (Syrian golden hamster [12]): 50%
half-life [5]: 4.5 h
bioavailability [9]: 39%
